Measurements from ChEMBL document CHEMBL3886762, “Substituted pyridizinone derivatives as PDE10 inhibitors” (2016).

What follows are compounds tested against cAMP and cAMP-inhibited cGMP 3',5'-cyclic phosphodiesterase 10A (Homo sapiens, UniProt Q9Y233) (assay: Fluorescence Polarization Assay: The fluorescence polarization assay for cyclic nucleotide phosphodiesterases was performed using an IMAP® FP kit supplied by Molecular Devices, Sunnyvale, Calif. (product #R8139). IMAP® technology has been applied previously to phosphodiesterase assays (Huang, W., et al., J. Biomol Screen, 2002, 7: 215).).
Sequence of cAMP and cAMP-inhibited cGMP 3',5'-cyclic phosphodiesterase 10A (Q9Y233 whole entry): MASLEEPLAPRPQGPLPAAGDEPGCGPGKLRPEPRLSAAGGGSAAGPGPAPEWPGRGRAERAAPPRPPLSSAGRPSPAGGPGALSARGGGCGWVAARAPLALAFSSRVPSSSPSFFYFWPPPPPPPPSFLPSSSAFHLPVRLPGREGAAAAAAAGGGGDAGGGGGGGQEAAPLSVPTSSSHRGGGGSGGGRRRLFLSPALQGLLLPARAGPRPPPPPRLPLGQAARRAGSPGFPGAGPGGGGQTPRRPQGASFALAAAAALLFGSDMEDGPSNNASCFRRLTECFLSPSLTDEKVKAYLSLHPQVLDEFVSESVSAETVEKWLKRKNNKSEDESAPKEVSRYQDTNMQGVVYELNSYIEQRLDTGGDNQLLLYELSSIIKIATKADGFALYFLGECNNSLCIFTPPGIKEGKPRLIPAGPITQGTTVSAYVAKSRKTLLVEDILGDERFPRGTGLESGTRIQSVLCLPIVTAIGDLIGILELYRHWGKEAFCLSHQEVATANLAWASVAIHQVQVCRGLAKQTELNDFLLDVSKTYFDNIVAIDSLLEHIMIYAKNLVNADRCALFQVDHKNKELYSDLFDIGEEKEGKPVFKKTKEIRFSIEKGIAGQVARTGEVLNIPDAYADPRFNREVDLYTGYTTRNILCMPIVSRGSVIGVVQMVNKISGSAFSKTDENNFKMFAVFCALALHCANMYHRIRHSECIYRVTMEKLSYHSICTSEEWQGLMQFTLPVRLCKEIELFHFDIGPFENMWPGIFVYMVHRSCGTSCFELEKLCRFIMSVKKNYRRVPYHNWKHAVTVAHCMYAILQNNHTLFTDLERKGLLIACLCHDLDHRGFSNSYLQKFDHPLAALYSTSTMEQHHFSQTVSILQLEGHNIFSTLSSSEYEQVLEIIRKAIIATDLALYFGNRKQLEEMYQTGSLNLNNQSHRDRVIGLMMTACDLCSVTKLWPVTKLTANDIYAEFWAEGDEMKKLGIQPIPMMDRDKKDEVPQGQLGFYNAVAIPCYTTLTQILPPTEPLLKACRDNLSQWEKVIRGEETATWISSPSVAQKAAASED

First: Cc1nnc(CNc2cc(OC[C@H]3C[C@@H]3c3ccc4ccccc4n3)nn(C)c2=O)s1
Second: Cc1nnc(CNc2cc(OC[C@H]3C[C@@H]3c3nn(C)c4ccccc34)nn(C)c2=O)s1
The Ki of the first is 900-fold lower: 0.001 nM for the first, 0.905 nM for the second.

Compared with `Cc1ccc(CNc2cc(OC[C@H]3C[C@@H]3c3ccn(C)n3)nn(C)c2=O)nc1`, `Cc1nnc(CNc2cc(OC[C@H]3C[C@@H]3c3ccn(C)n3)nn(C)c2=O)s1` is 4.7-fold lower in Ki: 0.473 nM for the first, 0.1 nM for the second.

Compared with `COc1ccc([C@H]2C[C@@H]2COc2cc(NCc3cnn(C(F)F)c3)c(=O)n(C)n2)nc1`, `Cc1nnc(CNc2cc(OC[C@H]3C[C@@H]3c3ccc4c(n3)CCC4)nn(C)c2=O)s1` is 72-fold lower in Ki: 0.144 nM for the first, 0.002 nM for the second.
